According to patent US9873702B2, “Heterocyclic compounds as biogenic amine transport modulators” (Southern Research Institute, priority 2014, dated 2018):

How the values were obtained:
[1] = target: dopamine transporter (DAT) (Rattus norvegicus, UniProt P23977); assay: Dopamine reuptake ([^3H]dopamine uptake) inhibition in rat brain synaptosomes; settings: for IC50: DA Uptake EC50 (nM ± SD), rat caudate synaptosomes, 5 nM [^3H]dopamine, 15 min, 25° C., three experiments pooled; for Emax: read-out: DA Uptake Emax (% I ± SD)
Sequence of dopamine transporter (DAT) (P23977 whole entry): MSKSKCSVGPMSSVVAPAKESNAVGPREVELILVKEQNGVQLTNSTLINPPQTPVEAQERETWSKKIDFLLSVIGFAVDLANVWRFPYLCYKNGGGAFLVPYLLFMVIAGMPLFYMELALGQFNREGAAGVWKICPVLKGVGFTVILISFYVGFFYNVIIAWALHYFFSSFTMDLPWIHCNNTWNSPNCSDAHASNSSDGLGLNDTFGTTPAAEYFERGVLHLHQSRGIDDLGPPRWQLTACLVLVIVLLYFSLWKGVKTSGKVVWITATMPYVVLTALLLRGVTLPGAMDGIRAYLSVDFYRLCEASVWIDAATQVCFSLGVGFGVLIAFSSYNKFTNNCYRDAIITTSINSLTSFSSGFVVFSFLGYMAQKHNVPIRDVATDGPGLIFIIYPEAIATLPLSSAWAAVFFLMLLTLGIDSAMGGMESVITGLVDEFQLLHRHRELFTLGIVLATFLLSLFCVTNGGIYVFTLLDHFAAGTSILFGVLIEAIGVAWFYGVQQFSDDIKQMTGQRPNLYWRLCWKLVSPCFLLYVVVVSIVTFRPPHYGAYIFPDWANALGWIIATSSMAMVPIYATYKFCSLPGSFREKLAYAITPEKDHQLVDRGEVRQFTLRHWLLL

Compound	IC50 [1]	Emax [1]	melting point
c1ccc(C(CCNc2nc(N3CCCCC3)nc3ccccc23)c2ccccc2)cc1 [compound 9, N-(3,3-Diphenylpropyl)-2-(piperidin-1-yl)quinazolin-4-amine]	140 nM	100%	160 to 164 °C
CC(C)(C)OC(=O)N1CCCc2ccc(-c3nc(NCC(c4ccccc4)c4ccccc4)c4ccccc4n3)cc21 [compound 71, Tert-Butyl 7-(4-((2,2-Diphenylethyl)Amino)Quinazolin-2-yl)-3,4-Dihydroquinoline-1(2H)-Carboxylate]	890 nM	< 100%	89 °C
COc1ccc2nc(-c3cnc(N(C)C)nc3)nc(NCC(c3ccccc3)c3ccccc3)c2c1 [compound 60, 2-(2-(Dimethylamino)Pyrimidin-5-yl)-N-(2,2-Diphenylethyl)-6-Methoxyquinazolin-4-Amine]	947 ± 402 nM	55 ± 6%	198 °C
c1ccc(C(CNc2nc(-n3cncn3)nc3ccccc23)c2ccccc2)cc1 [compound 52, N-(2,2-Diphenylethyl)-2-(1H-1,2,4-Triazol-1-yl)Quinazolin-4-Amine]	680 nM	100%	216 °C
CC(C)(C)OC(=O)n1cnc2cc(-c3nc(NCC(c4ccccc4)c4ccccc4)c4ccccc4n3)ccc21 [compound 62, Tert-Butyl 5-(4-((2,2-Diphenylethyl)Amino)Quinazolin-2-yl)-1H-Benzo [D]Imidazole-1-Carboxylate]	4210 nM	< 100%	183 °C
Nc1ncc(-c2nc(NCC(c3ccccc3)c3ccncc3)c3ccccc3n2)cn1 (stereo not drawn) [compound 107, 2-(2-Aminopyrimidin-5-yl)-N-(2-Phenyl-2-(Pyridin-4-yl)Ethyl)Quinazolin-4-Amine]	197 ± 40 nM	81 ± 3%	219 °C
c1ccc(CCNc2nc(-c3ccc4nccn4c3)nc3ccccc23)cc1 [compound 161, 2-(Imidazo[1,2-A]Pyridin-6-yl)-N-Phenethylquinazolin-4-Amine]	168 ± 22 nM	51 ± 1%	246 to 247 °C
COc1cc2nc(-c3cnc(N(C)C)nc3)nc(NCC(c3ccccc3)c3ccccc3)c2cc1OC [compound 23, 2-(2-(Dimethylamino)Pyrimidin-5-yl)-N-(2,2-Diphenylethyl)-6,7-Dimethoxyquinazolin-4-Amine]	720 nM	100%	92 °C
Cn1ncc2c(-c3nc(NCC(c4ccccc4)c4ccccc4)c4ccccc4n3)cccc21 [compound 65, N-(2,2-Diphenylethyl)-2-(1-Methyl-1H-Indazol-4-yl)Quinazolin-4-Amine]	155 ± 92 nM	50 ± 6%	201 °C
c1ccc2c(NCC(c3ccncc3)c3ccncc3)nc(-c3ccc4[nH]ccc4c3)nc2c1 [compound 173, N-(2,2-Di(pyridin-4-yl)Ethyl)-2-(1H-Indol-5-yl)Quinazolin-4-Amine]	140 ± 30 nM	80 ± 3%	201 to 202 °C
COCCNc1ncc(-c2nc(NCC(c3ccccc3)c3ccccc3)c3ccccc3n2)cn1 [compound 47, N-(2,2-Diphenylethyl)-2-(2-((2-Methoxyethyl)Amino)Pyrimidin-5-yl)Quinazolin-4-Amine]	148 ± 40 nM	73 ± 4%	199 °C
Nc1ncc(-c2nc(NCC(c3ccccc3)C3CCCCC3)c3ccccc3n2)cn1 (stereo not drawn) [compound 101, 2-(2-Aminopyrimidin-5-yl)-N-(2-Cyclohexyl-2-Phenylethyl)Quinazolin-4-Amine]	79 ± 19 nM	75 ± 3%	105 °C
c1ccc(C(CNc2nc(-c3ccc4[nH]ccc4c3)nc3ccccc23)c2cccc(-c3ccc4[nH]ccc4c3)n2)cc1 (stereo not drawn) [compound 58, N-(2-(6-(1H-Indol-5-yl)Pyridin-2-yl)-2-Phenylethyl)-2-(1H-Indol-5-yl)Quinazolin-4-Amine]	478 ± 154 nM	65 ± 5%	151 °C
COc1cc2nc(-c3ccsc3)nc(NCC(c3ccccc3)c3ccccc3)c2cc1OC [compound 27, N-(2,2-Diphenylethyl)-6,7-Dimethoxy-2-(Thiophen-3-yl)Quinazolin-4-Amine]	580 nM	100%	92 °C
c1ccc(C2CN(c3nc(-c4cnc5nccn5c4)nc4ccccc34)Cc3ccccc32)cc1 (stereo not drawn) [compound 143, 2-(Imidazo[1,2-A]Pyrimidin-6-yl)-4-(4-Phenyl-3,4-Dihydroisoquinolin-2(1H)-yl)Quinazoline]	502 ± 84 nM	73 ± 3%	104 to 106 °C
Nc1ncc(-c2nc(NCC(c3ccccc3)c3ccccc3)c3ccccc3n2)cn1 [compound 44, 2-(2-Aminopyrimidin-5-yl)-N-(2,2-Diphenylethyl)Quinazolin-4-Amine]	79 ± 19 nM	81 ± 3%	148 °C
c1ccc(C(CNc2nc(-c3cnc(N4CCCCC4)nc3)nc3ccccc23)c2ccccc2)cc1 [compound 38, N-(2,2-Diphenylethyl)-2-(2-(Piperidin-1-yl)Pyrimidin-5-yl)Quinazolin-4-Amine]	1420 nM	100%	92 °C
c1ccc(C(CNc2nc(-c3cccs3)nc3ccccc23)c2ccccc2)cc1 [compound 6, N-(2,2-Diphenylethyl)-2-(thiophen-2-yl)quinazolin-4-amine]	575 ± 51 nM	78 ± 1%	148 to 152 °C
c1cncc(C(CNc2nc(-c3ccc4nccn4c3)nc3ccccc23)c2ccc[nH]2)c1 (stereo not drawn) [compound 155, 2-(Imidazo[1,2-A]Pyridin-6-yl)-N-(2-(pyridin-3-yl)-2-(1H-Pyrrol-2-yl)Ethyl)Quinazolin-4-Amine]	175 ± 65 nM	77 ± 6%	121 to 124 °C

The remaining compounds from weak to strong by IC50 [1], led by results:

IC50 [1]	Emax [1]	melting point	Compound
78 ± 9 nM	75 ± 1%	237 °C	c1ccc(C(CCNc2nc(-c3ccc4nccn4c3)nc3ccccc23)c2ccccc2)cc1 [compound 87, N-(3,3-Diphenylpropyl)-2-(Imidazo[1,2-A]Pyridin-6-yl)Quinazolin-4-Amine]
74 ± 9 nM	64 ± 1%	204 °C	CCOC(=O)c1cn2cc(-c3nc(NCC(c4ccccc4)c4ccccc4)c4ccccc4n3)ccc2n1 [compound 113, Ethyl 6-(4-((2,2-Diphenylethyl)Amino)Quinazolin-2-yl)Imidazo[1,2-A]Pyridine-2-Carboxylate]
56 ± 13 nM	73 ± 3%	144 to 146 °C	CS(=O)(=O)n1ccc2cc(-c3nc(NCC(c4ccccc4)c4ccccc4)c4ccccc4n3)ccc21 [compound 154, N-(2,2-Diphenylethyl)-2-(1-(Methylsulfonyl)-1H-Indol-5-yl)Quinazolin-4-Amine]
55 ± 18 nM	61 ± 3%	112 °C	CN(C)c1ncc(-c2cccc(C(CNc3nc(-c4cnc(N(C)C)nc4)nc4ccccc34)c3ccccc3)n2)cn1 (stereo not drawn) [compound 57, 2-(2-(Dimethylamino)Pyrimidin-5-yl)-N-(2-(6-(2-(Dimethylamino)Pyrimidin-5-yl)Pyridin-2-yl)-2-Phenylethyl)Quinazolin-4-Amine]
51 ± 14 nM	94 ± 4%	215 °C	Oc1nc2cc(-c3nc(NCC(c4ccccc4)c4ccccc4)c4ccccc4n3)ccc2[nH]1 [compound 79, 5-(4-((2,2-Diphenylethyl)Amino)Quinazolin-2-yl)-1H-Benzo[D]Imidazol-2-ol]
44 ± 8 nM	76 ± 2%	91 to 93 °C	Cn1ccc2cc(-c3nc(NCC(c4ccccc4)c4cccnc4)c4ccccc4n3)ccc21 (stereo not drawn) [compound 137, 2-(1-Methyl-1H-Indol-5-yl)-N-(2-Phenyl-2-(Pyridin-3-yl)Ethyl)Quinazolin-4-Amine]
36 ± 2 nM	71 ± 1%	67 °C	COc1ncc(-c2nc(NCC(c3ccccc3)c3ccccc3)c3ccccc3n2)cn1 [compound 29, N-(2,2-Diphenylethyl)-2-(2-Methoxypyrimidin-5-yl)Quinazolin-4-Amine]
26 ± 3 nM	63 ± 1%	210 °C	CS(=O)(=O)Nc1ccc(-c2nc(NCC(c3ccccc3)c3ccccc3)c3ccccc3n2)cn1 [compound 138, N-(5-(4-((2,2-Diphenylethyl)Amino)Quinazolin-2-yl)Pyridin-2-yl)Methanesulfonamide]
24 ± 5 nM	75 ± 2%	195 to 196 °C	CC(C)C(CNc1nc(-c2ccc3nccn3c2)nc2ccccc12)c1ccccc1 (stereo not drawn) [compound 168, 2-(Imidazo[1,2-A]Pyridin-6-yl)-N-(3-Methyl-2-Phenylbutyl)Quinazolin-4-Amine]
15 ± 3 nM	73 ± 2%	189 to 191 °C	c1ccc(CC(CNc2nc(-c3cnc4nccn4c3)nc3ccccc23)c2ccccc2)cc1 (stereo not drawn) [compound 142, N-(2,3-Diphenylpropyl)-2-(Imidazo[1,2-A]Pyrimidin-6-yl)Quinazolin-4-Amine]
11 ± 1 nM	69 ± 1%	192 to 196 °C	Cc1cc2nccn2cc1-c1nc(NCCc2ccccc2)c2ccccc2n1 [compound 160, 2-(7-Methylimidazo[1,2-A]Pyridin-6-yl)-N-Phenethylquinazolin-4-Amine]
6.4 ± 1.6 nM	76 ± 3%	107 to 109 °C	CC(CNc1nc(-c2ccc3nccn3c2)nc2ccccc12)(c1ccccc1)c1ccccc1 [compound 164, N-(2,2-Diphenylpropyl)-2-(Imidazo[1,2-A]Pyridin-6-yl)Quinazolin-4-Amine]
3.7 ± 1.5 nM	87 ± 6%	166 to 168 °C	c1ccc(C(CNc2nc(N3CCc4[nH]ccc4C3)nc3ccccc23)c2ccccc2)cc1 [compound 163, 2-(6,7-Dihydro-1H-Pyrrolo[3,2-C]Pyridin-5(4H)-yl)-N-(2,2-Diphenylethyl)Quinazolin-4-Amine]
